Source: publication PMC10893631, “Receptor-based pharmacophore modeling, molecular docking, synthesis and biological evaluation of novel VEGFR-2, FGFR-1, and BRAF multi-kinase inhibitors” (BMC Chemistry, 2024)
Like-named read-outs stand apart in the source and are kept apart here.

Key:
Type in all cases: cell-based, human
[1] = tested on: NCI panel of 60 tumor cell lines; assay: NCI SRB growth inhibition, whole panel mean (single dose 10 µM / five-dose); details: Homo sapiens, 10 µM
Procedure: Screening of cytotoxic activity against a panel of sixty human tumor cell lines The selected compounds by NCI were evaluated for their anticancer activity in a two- stage process. […] Then, the output from the single dose screen is reported as a mean graph. […] Assay protocol. […] For a typical screening experiment, cells are inoculated into 96 well microtiter plates in 100 µL at plating densities ranging from 5000 to 40,000 cells/well depending on the doubling time of individual cell lines. […] After 24 h, two plates of each cell line are fixed in situ with TCA, to represent a measurement of the cell population for each cell line at the time of drug addition (Tz). The experimental drugs are solubilized in dimethyl sulfoxide at 400-fold the desired final maximum test concentration and stored frozen prior to use. At the time of drug addition, an aliquot of frozen concentrate is thawed and diluted to twice the desired final maximum test concentration with complete medium containing 50 µg/mL gentamicin. Additional four, 10-fold or ½ log serial dilutions are made to provide a total of five drug concentrations plus control. Aliquots of 100 mL of these different drug dilutions are added to the appropriate microtiter wells already containing […] of medium, resulting in the required final drug concentrations. […] For adherent cells, the assay is terminated by the addition of cold TCA. […] The supernatant is discarded, and the plates are washed five times with tap water and air dried. Sulforhodamine B (SRB) solution ([…]) at 0.4% (w/v) in 1% acetic acid is added to each well, and plates are incubated for 10 min at room temperature. After staining, unbound dye is removed by washing five times with 1% acetic acid and the plates are air dried. […] Using the seven absorbance measurements [time zero, (Tz), control growth, (C), and test growth in the presence of drug at the five concentration levels (Ti)], the percentage growth is calculated at each of the drug concentrations levels. Percentage growth inhibition is calculated as: [(Ti Tz)/(C–Tz)] x 100 for concentrations for which Ti>/=Tz and [(Ti-Tz)/Tz] x 100 for concentrations for which Ti < Tz. Three dose response parameters are calculated for each experimental agent. […] The drug concentration resulting in total growth inhibition (TGI) is calculated from Ti = Tz. […] Values are calculated for each of these three parameters if the level of activity is reached; however, if the effect is not reached or is exceeded, the value for that parameter is expressed as greater or less than the maximum or minimum concentration tested.

U251 = assay: NCI SRB growth inhibition (single dose 10 µM / five-dose); details: Homo sapiens, U-251; U251 (CNS cancer), 10 µM; read-out: GI%
Procedure, shortened: (§1)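 Percent growth relative to untreated control and time-zero cell mass, determined by SRB. Five drug levels (10-fold or half-log steps) plus control; time-zero plates fixed 24 h after seeding.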

NCI-H522 = assay: as above; details: Homo sapiens; NCI-H522 (Non-small cell lung cancer), 10 µM; read-out: GI%
Procedure, shortened: as §1

HCT-15 = assay: as above; details: Homo sapiens; HCT-15 (Colon cancer), 10 µM; read-out: GI%
Procedure, shortened: as §1

OVCAR-4 = assay: as above; details: Homo sapiens; OVCAR-4 (Ovarian cancer), 10 µM; read-out: GI%
Procedure, shortened: as §1

OVCAR-3 = assay: as above; details: Homo sapiens; OVCAR-3 (Ovarian cancer), 10 µM; read-out: GI%
Procedure, shortened: as §1

MDA-MB-435 = assay: as above; details: Homo sapiens; MDA-MB-435 (Melanoma), 10 µM; read-out: GI%
Procedure, shortened: as §1

SF-268 = assay: as above; details: Homo sapiens; SF-268 (CNS cancer), 10 µM; read-out: GI%
Procedure, shortened: as §1

NCI-H23 = assay: as above; details: Homo sapiens; NCI-H23 (Non-small cell lung cancer), 10 µM; read-out: GI%
Procedure, shortened: as §1

UO-31 = assay: as above; details: Homo sapiens; UO-31 (Renal cancer), 10 µM; read-out: GI%
Procedure, shortened: as §1

HL-60(TB) = assay: as above; details: Homo sapiens; HL-60(TB) (Leukemia), 10 µM; read-out: GI%
Procedure, shortened: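 Seeding varied with cell doubling time (5000–40,000 cells/well). Dilutions were 10-fold or ½ log, five levels in total. Sulforhodamine B staining (0.4% w/v, 10 min, room temperature) of TCA-fixed cells measured growth.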

SN12C = assay: as above; details: Homo sapiens; SN12C (Renal cancer), 10 µM; read-out: GI%
Procedure, shortened: as §1

UACC-62 = assay: as above; details: Homo sapiens; UACC-62 (Melanoma), 10 µM; read-out: GI%
Procedure, shortened: as §1

IGROV1 = assay: as above; details: Homo sapiens, IGROV-1; IGROV1 (Ovarian cancer), 10 µM; read-out: GI%
Procedure, shortened: as §1

NCI-H322M = assay: as above; details: Homo sapiens; NCI-H322M (Non-small cell lung cancer), 10 µM; read-out: GI%
Procedure, shortened: as §1

OVCAR-8 = assay: as above; details: Homo sapiens; OVCAR-8 (Ovarian cancer), 10 µM; read-out: GI%
Procedure, shortened: as §1

NCI-H460 = assay: as above; details: Homo sapiens; NCI-H460 (Non-small cell lung cancer), 10 µM; read-out: GI%
Procedure, shortened: as §1

PC-3 = assay: as above; details: Homo sapiens; PC-3 (Prostate cancer), 10 µM; read-out: GI%
Procedure, shortened: as §1

KM12 = assay: as above; details: Homo sapiens; KM12 (Colon cancer), 10 µM; read-out: GI%
Procedure, shortened: as §1

HOP-62 = assay: as above; details: Homo sapiens; HOP-62 (Non-small cell lung cancer), 10 µM; read-out: GI%
Procedure, shortened: as §1

T-47D = assay: as above; details: Homo sapiens, T47D; T-47D (Breast cancer), 10 µM; read-out: GI%
Procedure, shortened: as §1

COLO 205 = assay: as above; details: Homo sapiens; COLO 205 (Colon cancer), 10 µM; read-out: GI%
Procedure, shortened: as §1

SK-OV-3 = assay: as above; details: Homo sapiens; SK-OV-3 (Ovarian cancer), 10 µM; read-out: GI%
Procedure, shortened: as §1

[2] = mean over NCI 60 cell lines, > 100% = lethal effect, read-out: mean growth inhibition % (GI%)
[3] = mean over NCI panel of 60 tumor cell lines, read-out: Mean growth inhibition %

| Structure (SMILES) | inhibition at 10 µM [1, 2] [%] | inhibition at 10 µM [1, 3] [%] | inhibition at 10 µM (U251) [%] | inhibition at 10 µM (NCI-H522) [%] | inhibition at 10 µM (HCT-15) [%] | inhibition at 10 µM (OVCAR-4) [%] | inhibition at 10 µM (OVCAR-3) [%] | inhibition at 10 µM (MDA-MB-435) [%] | inhibition at 10 µM (SF-268) [%] | inhibition at 10 µM (NCI-H23) [%] | inhibition at 10 µM (UO-31) [%] | inhibition at 10 µM (HL-60(TB)) [%] | inhibition at 10 µM (SN12C) [%] | inhibition at 10 µM (UACC-62) [%] | inhibition at 10 µM (IGROV1) [%] | inhibition at 10 µM (NCI-H322M) [%] | inhibition at 10 µM (OVCAR-8) [%] | inhibition at 10 µM (NCI-H460) [%] | inhibition at 10 µM (PC-3) [%] | inhibition at 10 µM (KM12) [%] | further results |
| --- | --- | --- | --- | --- | --- | --- | --- | --- | --- | --- | --- | --- | --- | --- | --- | --- | --- | --- | --- | --- | --- |
| COc1cc(C=NNC(=O)c2ccc3[nH]c(-c4ccccc4)nc3c2)cc(OC)c1OC [8g, 2-Phenyl-N'-(3,4,5-trimethoxybenzylidene)-1H-benzo[d]imidazole-5-carbohydrazide] | 36 | 36 | 42.3 | 50.7 | 38.4 | 21.9 | 29.4 | 48.5 | 32 | 49.4 | 45.5 | 17.1 | 32.2 | 70.4 | 17 | 15.7 | 48.7 | 56.3 | 37.9 | 36.4 | – |
| COc1ccc(C=NNC(=O)c2ccc3[nH]c(-c4ccc(Cl)cc4)nc3c2)cc1O [8s, 2-(4-Chlorophenyl)-N'-(3-hydroxy-4-methoxybenzylidene)-1H-benzo[d]imidazole-5-carbohydrazide] | 49.5 | 49.5 | 75.2 | 30.9 | 23.3 | 20.8 | 47.5 | 89.9 | 72.7 | 29.2 | 8.7 | 45.3 | 31.3 | 37.5 | < 5 | 18.1 | 43.2 | 63.8 | 56.5 | 68.4 | – |
| COc1ccc(OC)c(C=NNC(=O)c2ccc3[nH]c(-c4ccc(Cl)cc4)nc3c2)c1 [8t, 2-(4-Chlorophenyl)-N'-(2,5-dimethoxybenzylidene)-1H-benzo[d]imidazole-5-carbohydrazide] | 33.5 | 33.5 | 25.7 | 40.9 | 58.2 | 38.9 | 10.8 | 14.3 | 43 | 33.9 | 31.9 | 12.9 | – | 24.3 | 7.82 | 28.9 | 17.2 | 17.5 | 58.5 | 23.3 | inhibition at 10 µM (HOP-62): 18.4%; inhibition at 10 µM (T-47D): 61.8%; inhibition at 10 µM (COLO 205): 18.3%; inhibition at 10 µM (SK-OV-3): 15.1% |
